Assay results reported in patent US20120027816A1, “HIGHLY PURE ELETRIPTAN OR A PHARMACEUTICALLY ACCEPTABLE SALT THEREOF SUBSTANTIALLY FREE OF ELETRIPTAN N-OXIDE IMPURITY” (ACTAVIS GROUP PTC EHF, priority 2009, published 2012).
Where a name gives a salt, the structure may show the parent alone.

Assay: Particle Size Distribution by laser diffraction (Malvern Master Sizer 2000)
Assay type: physicochemical
Conditions: eletriptan hydrobromide obtained by the Example 4 procedure, unmilled, cumulative volume size distribution
Experimental: As used herein, “Particle Size Distribution (PSD)” means the cumulative volume size distribution of equivalent spherical diameters as determined by laser diffraction in Malvern Master Sizer 2000 equipment or its equivalent using a particle size method containing Tegiloxan medium with sonication time of 10 seconds and stirrer speed of 2500 rpm. “Mean particle size distribution, i.e., (D50)” correspondingly, means the median of said particle size distribution. The important characteristics of the PSD are the (D90), which is the size, in microns, below which 90% of the particles by volume are found, and the (D50), which is the size, in microns, below which 50% of the particles by volume are found. Thus, a D90 or d(0.9) of less than 300 microns means that 90 volume-percent of the particles in a composition have a diameter less than 300 microns.

In order of falling “Particle Size Distribution d(0.1)” value:
1. CN1CCC[C@@H]1Cc1c[nH]c2ccc(CCS(=O)(=O)c3ccccc3)cc12 [Example 4C, eletriptan hydrobromide]  13.58 microns
2. CN1CCC[C@@H]1Cc1c[nH]c2ccc(CCS(=O)(=O)c3ccccc3)cc12 [Example 4A, eletriptan hydrobromide]  12.07 microns
3. CN1CCC[C@@H]1Cc1c[nH]c2ccc(CCS(=O)(=O)c3ccccc3)cc12 [Example 4B, eletriptan hydrobromide]  9.99 microns

In order of falling “Particle Size Distribution d(0.5)” value:
1. CN1CCC[C@@H]1Cc1c[nH]c2ccc(CCS(=O)(=O)c3ccccc3)cc12 [Example 4A, eletriptan hydrobromide]  27.69 microns
2. CN1CCC[C@@H]1Cc1c[nH]c2ccc(CCS(=O)(=O)c3ccccc3)cc12 [Example 4C, eletriptan hydrobromide]  27.25 microns
3. CN1CCC[C@@H]1Cc1c[nH]c2ccc(CCS(=O)(=O)c3ccccc3)cc12 [Example 4B, eletriptan hydrobromide]  20.85 microns

In order of rising “Particle Size Distribution d(0.9)” value:
1. CN1CCC[C@@H]1Cc1c[nH]c2ccc(CCS(=O)(=O)c3ccccc3)cc12 [Example 4B, eletriptan hydrobromide]  42.83 microns
2. CN1CCC[C@@H]1Cc1c[nH]c2ccc(CCS(=O)(=O)c3ccccc3)cc12 [Example 4C, eletriptan hydrobromide]  50.91 microns
3. CN1CCC[C@@H]1Cc1c[nH]c2ccc(CCS(=O)(=O)c3ccccc3)cc12 [Example 4A, eletriptan hydrobromide]  53.92 microns
